Assay results from patent US20220386606A1, “SPECIFICALLY SUBSTITUTED 3-PHENYL-5-SPIROCYCLOPENTYL-3-PYRROLIN-2-ONES AND THEIR USE AS HERBICIDES” (Bayer Aktiengesellschaft, priority 2019, published 2022).

Key:
HORMU = assay: Post-emergence herbicidal action against HORMU; type: in vivo, Hordeum murinum; conditions: 80 g/ha, visual assessment about 3 weeks after treatment vs untreated controls
Procedure: (§1) Seeds of monocotyledonous and dicotyledonous weed and crop plants are laid out in sandy loam soil in wood-fiber pots, covered with soil and cultivated in a greenhouse under good growth conditions. 2 to 3 weeks after sowing, the test plants are treated at the one-leaf stage. The compounds of the invention, formulated in the form of wettable powders (WP) or as emulsion concentrates (EC), are then sprayed onto the green parts of the plants as aqueous suspension or emulsion at a water application rate equating to 600 to 800 l/ha with addition of 0.2% wetting agent. After the test plants have been left to stand in the greenhouse under optimal growth conditions for about 3 weeks, the action of the preparations is assessed visually in comparison to untreated controls (herbicidal action in percent (%): 100% activity=the plants have died, 0% activity=like control plants).

DIGSA [1] = assay: Post-emergence herbicidal action against DIGSA; type: in vivo, Digitaria sanguinalis; conditions: 80 g/ha, visual assessment about 3 weeks after treatment vs untreated controls
Procedure, shortened: (§2)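 Weeds were grown in sandy loam in a greenhouse and treated at the one-leaf stage, 2 to 3 weeks after sowing. WP or EC formulations were sprayed onto green parts at 600 to 800 l/ha water with 0.2% wetting agent. Visual % action versus untreated controls was scored after about 3 weeks.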

LOLRI [2] = assay: Post-emergence herbicidal action against LOLRI; type: in vivo, Lolium rigidum; conditions: 80 g/ha, visual assessment about 3 weeks after treatment vs untreated controls
Procedure, shortened: as §2

AVEFA [3] = assay: Post-emergence herbicidal action against AVEFA; type: in vivo, Avena fatua; conditions: 80 g/ha, visual assessment after about 3 weeks
Procedure, shortened: as §2

ALOMY [4] = assay: Post-emergence herbicidal action against ALOMY; type: in vivo, Alopecurus myosuroides; conditions: 80 g/ha, visual assessment after about 3 weeks
Procedure, shortened: as §2

SETVI [5] = assay: Post-emergence herbicidal action against SETVI; type: in vivo, Setaria viridis; conditions: 80 g/ha, visual assessment about 3 weeks after treatment vs untreated controls
Procedure, shortened: as §2

AVEFA [6] = assay: Pre-emergence herbicidal action against AVEFA; type: in vivo, Avena fatua; conditions: 320 g/ha, scored visually after 3 weeks vs untreated controls
Procedure, shortened: (§3)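 Herbicidal activity is expressed as percent visual damage compared with untreated controls, where 100% means dead plants, assessed 3 weeks after pre-emergence treatment of sown, soil-covered seeds in sandy loam under greenhouse conditions.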

VERPE = assay: Pre-emergence herbicidal action against VERPE; type: in vivo, Veronica persica; conditions: 320 g/ha
Procedure, shortened: as §3

MATIN = assay: Pre-emergence herbicidal action against MATIN; type: in vivo; conditions: 320 g/ha
Procedure, shortened: as §3

VIOTR = assay: Pre-emergence herbicidal action against VIOTR; type: in vivo, Viola tricolor; conditions: 320 g/ha
Procedure, shortened: as §3

ECHCG [7] = assay: Pre-emergence herbicidal action against ECHCG; type: in vivo, Echinochloa crus-galli; conditions: 320 g/ha, scored visually after 3 weeks vs untreated controls
Procedure, shortened: as §3

ECHCG [8] = assay: Post-emergence herbicidal action against ECHCG; type: in vivo, Echinochloa crus-galli; conditions: 80 g/ha, visual assessment about 3 weeks after treatment vs untreated controls
Procedure, shortened: as §2

LOLRI [9] = assay: Pre-emergence herbicidal action against LOLRI (Table 8, titled post-emergence at 320 g/ha); type: in vivo, Lolium rigidum; conditions: table stands in the pre-emergence section
Procedure, shortened: as §3

AMARE = assay: Pre-emergence herbicidal action against AMARE; type: in vivo, Amaranthus retroflexus; conditions: 320 g/ha
Procedure, shortened: as §3

DIGSA [10] = assay: Pre-emergence herbicidal action against DIGSA; type: in vivo, Digitaria sanguinalis; conditions: 320 g/ha, scored visually after 3 weeks vs untreated controls
Procedure, shortened: as §3

ALOMY [11] = assay: Pre-emergence herbicidal action against ALOMY; type: in vivo, Alopecurus myosuroides; conditions: 320 g/ha, scored visually after 3 weeks vs untreated controls
Procedure, shortened: as §3

POLCO = assay: Pre-emergence herbicidal action against POLCO; type: in vivo, Polygonum convolvulus; conditions: 320 g/ha
Source text: Seeds of monocotyledonous and dicotyledonous weed plants and crop plants are laid out in sandy loam soil in wood-fiber pots and covered with soil. The compounds of the invention, formulated in the form of wettable powders (WP) or as emulsion concentrates (EC), are then applied to the surface of the covering soil as aqueous suspension or emulsion at a water application rate equating to 600 to 800 L/ha with addition of 0.2% wetting agent.
After the treatment, the pots are placed in a greenhouse and kept under good growth conditions for the trial plants. The damage to the test plants is scored visually after a test period of 3 weeks by comparison with untreated controls (herbicidal activity in percent (%): 100% activity=the plants have died, 0% activity=like control plants).

SETVI [12] = assay: Pre-emergence herbicidal action against SETVI; type: in vivo, Setaria viridis; conditions: 320 g/ha, scored visually after 3 weeks vs untreated controls
Procedure, shortened: as §3

ABUTH = assay: Post-emergence herbicidal action against ABUTH; type: in vivo, Abutylon threophrasti; conditions: 80 g/ha, visual assessment about 3 weeks after treatment vs untreated controls
Procedure: as §1

Row | SMILES | Post-emergence action against HORMU in % (HORMU) [%] | Post-emergence action against DIGSA in % (DIGSA [1]) [%] | Post-emergence action against LOLRI in % (LOLRI [2]) [%] | Post-emergence action against AVEFA in % (AVEFA [3]) [%] | Post-emergence action against ALOMY in % (ALOMY [4]) [%] | Post-emergence action against SETVI in % (SETVI [5]) [%] | Pre-emergence action against AVEFA in % (AVEFA [6]) [%] | Pre-emergence action against VERPE in % (VERPE) [%] | Pre-emergence action against MATIN in % (MATIN) [%] | Pre-emergence action against VIOTR in % (VIOTR) [%] | Pre-emergence action against ECHCG in % (ECHCG [7]) [%] | Post-emergence action against ECHCG in % (ECHCG [8]) [%] | Pre-emergence herbicidal action against LOLRI in % (LOLRI [9]) [%] | Pre-emergence action against AMARE in % (AMARE) [%] | Pre-emergence action against DIGSA in % (DIGSA [10]) [%] | Pre-emergence action against ALOMY in % (ALOMY [11]) [%] | Pre-emergence action against POLCO in % (POLCO) [%] | Pre-emergence action against SETVI in % (SETVI [12]) [%] | Post-emergence action against ABUTH in % (ABUTH) [%]
1 | C#Cc1cc(Cl)c(C2=C(O)C3(CCC(COCC)C3)NC2=O)c(OC)c1 (stereo not drawn) [Example I-08] | 80 | 80 | 90 | 90 | 80 | 90 |  |  |  |  |  |  |  |  |  |  |  |  | 
2 | CC#Cc1cc(C)c(C2=C(OC(=O)OCC)C3(CCC(COCCC)C3)NC2=O)c(Cl)c1 (stereo not drawn) [Example P-86] |  | 90 | 100 |  | 90 | 100 | 80 | 100 | 80 | 100 | 100 | 100 | 100 | 100 | 100 | 100 | 90 | 100 | 
3 | CC#Cc1cc(C)c(C2=C(OC(=O)C(C)C)C3(CCC(COC)C3)NC2=O)c(Br)c1 (stereo not drawn) [Example P-33] |  | 100 | 100 | 90 | 100 | 100 | 100 | 80 |  | 100 | 100 |  | 100 | 100 | 100 | 100 | 100 | 100 | 80
4 | CC#Cc1cc(C)c(C2=C(OC(=O)C(C)C)C3(CCC(COCC)C3)NC2=O)c(OC)c1 (stereo not drawn) [Example P-60] |  | 90 | 100 | 100 | 100 | 100 | 100 | 80 | 90 | 100 | 100 | 100 | 100 | 100 | 100 | 100 | 80 | 100 | 
5 | CC#Cc1cc(C)c(C2=C(OC(=O)OCC)C3(CCC(COCC)C3)NC2=O)c(Cl)c1 (stereo not drawn) [Example P-11] | 100 | 100 | 100 | 100 | 80 | 100 |  |  |  |  |  |  |  |  |  |  |  |  | 
6 | CC#Cc1cc(C)c(C2=C(OC(=O)OCC)C3(CCC(COCCOC)C3)NC2=O)c(OC)c1 (stereo not drawn) [Example P-80] |  | 90 | 90 | 90 | 100 | 100 | 100 | 100 | 90 | 100 | 100 | 100 | 100 | 90 | 100 | 100 | 90 | 100 | 
